From PubChem BioAssay (NCI)
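Cells were grown in 96-well plates and exposed to each compound for 48 hours at five concentrations; endpoints were interpolated linearly between bracketing concentrations, or set to the highest concentration if not reached. TGI denotes the concentration required for complete inhibition of growth.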

Tests used:
Test in all cases: DTP human tumour cell line panel, 48 h
MCF7 breast = system: MCF7 breast
UACC-257 melanoma = system: UACC-257 melanoma
UO-31 renal = system: UO-31 renal
HCT-15 colon = system: HCT-15 colon
SK-MEL-2 melanoma = system: SK-MEL-2 melanoma
HCT-116 colon = system: HCT-116 colon
PC-3 prostate = system: PC-3 prostate
MDA-N = system: MDA-N
COLO 205 colon = system: COLO 205 colon
NCI/ADR-RES ovarian = system: NCI/ADR-RES ovarian
RPMI-8226 leukemia = system: RPMI-8226 leukemia
SF-295 CNS = system: SF-295 CNS
CAKI-1 renal = system: CAKI-1 renal
NCI-H460 lung = system: NCI-H460 lung
OVCAR-5 ovarian = system: OVCAR-5 ovarian
HS 578T breast = system: HS 578T breast
MALME-3M melanoma = system: MALME-3M melanoma
T-47D breast = system: T-47D breast
HT29 colon = system: HT29 colon
786-0 renal = system: 786-0 renal
OVCAR-3 ovarian = system: OVCAR-3 ovarian
DU-145 prostate = system: DU-145 prostate
U251 CNS = system: U251 CNS
NCI-H23 lung = system: NCI-H23 lung
SNB-75 CNS = system: SNB-75 CNS
M14 melanoma = system: M14 melanoma
CCRF-CEM leukemia = system: CCRF-CEM leukemia
SF-539 CNS = system: SF-539 CNS
SNB-19 CNS = system: SNB-19 CNS
MDA-MB-435 = system: MDA-MB-435
ACHN renal = system: ACHN renal
RXF 393 renal = system: RXF 393 renal
TK-10 renal = system: TK-10 renal
SW-620 colon = system: SW-620 colon
SK-MEL-28 melanoma = system: SK-MEL-28 melanoma
SK-OV-3 ovarian = system: SK-OV-3 ovarian
MOLT-4 leukemia = system: MOLT-4 leukemia
SF-268 CNS = system: SF-268 CNS
EKVX NSCLC = system: EKVX NSCLC
HCC-2998 colon = system: HCC-2998 colon
HOP-62 NSCLC = system: HOP-62 NSCLC
HL-60(TB) leukemia = system: HL-60(TB) leukemia
OVCAR-4 ovarian = system: OVCAR-4 ovarian
KM12 colon = system: KM12 colon
SR leukemia = system: SR leukemia
OVCAR-8 ovarian = system: OVCAR-8 ovarian
SK-MEL-5 melanoma = system: SK-MEL-5 melanoma
K-562 leukemia = system: K-562 leukemia
SN12C renal = system: SN12C renal
NCI-H226 lung = system: NCI-H226 lung
MDA-MB-231 breast = system: MDA-MB-231 breast
NCI-H522 lung = system: NCI-H522 lung
LOX IMVI melanoma = system: LOX IMVI melanoma
IGROV1 ovarian = system: IGROV1 ovarian
HOP-92 NSCLC = system: HOP-92 NSCLC
UACC-62 melanoma = system: UACC-62 melanoma
A549 NSCLC = system: A549 NSCLC
A498 renal = system: A498 renal

In the case of `CSCCC(NCc1c(O)ccc2c(-c3ccccc3)cc(=O)oc12)C(=O)O` (stereo not drawn), the TGI (MCF7 breast) is reported as greater than 100 µM, the TGI (UACC-257 melanoma) is reported as greater than 100 µM and the TGI (UO-31 renal) is reported as greater than 100 µM. For the same compound, the TGI (HCT-15 colon) was greater than 100 µM, the TGI (SK-MEL-2 melanoma) was greater than 100 µM and the TGI (HCT-116 colon) was greater than 100 µM. It also gave a TGI (PC-3 prostate) greater than 100 µM, a TGI (MDA-N) greater than 100 µM and a TGI (COLO 205 colon) greater than 100 µM. It also gave a TGI (NCI/ADR-RES ovarian) greater than 100 µM, a TGI (RPMI-8226 leukemia) greater than 100 µM and a TGI (SF-295 CNS) greater than 100 µM. The TGI (CAKI-1 renal) was greater than 100 µM, the TGI (NCI-H460 lung) was greater than 100 µM and the TGI (OVCAR-5 ovarian) was greater than 100 µM. For the same compound, the TGI (HS 578T breast) was greater than 100 µM, the TGI (MALME-3M melanoma) was greater than 100 µM and the TGI (T-47D breast) was greater than 100 µM. For the same compound, the TGI (HT29 colon) was greater than 100 µM, the TGI (786-0 renal) was greater than 100 µM and the TGI (OVCAR-3 ovarian) was greater than 100 µM. For the same compound, the TGI (DU-145 prostate) was greater than 100 µM, the TGI (U251 CNS) was greater than 100 µM and the TGI (NCI-H23 lung) was greater than 100 µM. For the same compound, the TGI (SNB-75 CNS) was greater than 100 µM, the TGI (M14 melanoma) was greater than 100 µM and the TGI (CCRF-CEM leukemia) was greater than 100 µM. For the same compound, the TGI (SF-539 CNS) was greater than 100 µM, the TGI (SNB-19 CNS) was greater than 100 µM and the TGI (MDA-MB-435) was greater than 100 µM. It also gave a TGI (ACHN renal) greater than 100 µM, a TGI (RXF 393 renal) greater than 100 µM and a TGI (TK-10 renal) greater than 100 µM. For the same compound, the TGI (SW-620 colon) was greater than 100 µM, the TGI (SK-MEL-28 melanoma) was greater than 100 µM and the TGI (SK-OV-3 ovarian) was greater than 100 µM. It also gave a TGI (MOLT-4 leukemia) greater than 100 µM, a TGI (SF-268 CNS) greater than 100 µM and a TGI (EKVX NSCLC) greater than 100 µM. The TGI (HCC-2998 colon) was greater than 100 µM, the TGI (HOP-62 NSCLC) was greater than 100 µM and the TGI (HL-60(TB) leukemia) was greater than 100 µM. The TGI (OVCAR-4 ovarian) was greater than 100 µM, the TGI (KM12 colon) was greater than 100 µM and the TGI (SR leukemia) was greater than 100 µM. The TGI (OVCAR-8 ovarian) was greater than 100 µM, the TGI (SK-MEL-5 melanoma) was greater than 100 µM and the TGI (K-562 leukemia) was greater than 100 µM. The TGI (SN12C renal) was greater than 100 µM, the TGI (NCI-H226 lung) was greater than 100 µM and the TGI (MDA-MB-231 breast) was greater than 100 µM. It also gave a TGI (NCI-H522 lung) greater than 100 µM, a TGI (LOX IMVI melanoma) greater than 100 µM and a TGI (IGROV1 ovarian) greater than 100 µM. For the same compound, the TGI (HOP-92 NSCLC) was greater than 100 µM, the TGI (UACC-62 melanoma) was greater than 100 µM and the TGI (A549 NSCLC) was greater than 100 µM.

Compound `COc1cc2c(cc1OC)C1c3ccccc3CCN1CC2` (stereo not drawn) has a TGI (MCF7 breast) greater than 100 µM, a TGI (UACC-257 melanoma) greater than 100 µM and a TGI (HCT-15 colon) greater than 100 µM. The TGI (SK-MEL-2 melanoma) was greater than 100 µM, the TGI (HCT-116 colon) was greater than 100 µM and the TGI (PC-3 prostate) was greater than 100 µM. For the same compound, the TGI (MDA-N) was greater than 100 µM, the TGI (COLO 205 colon) was greater than 100 µM and the TGI (NCI/ADR-RES ovarian) was greater than 100 µM. The TGI (SF-295 CNS) was greater than 100 µM, the TGI (CAKI-1 renal) was greater than 100 µM and the TGI (NCI-H460 lung) was greater than 100 µM. It also gave a TGI (OVCAR-5 ovarian) greater than 100 µM, a TGI (HS 578T breast) greater than 100 µM and a TGI (MALME-3M melanoma) greater than 100 µM. The TGI (T-47D breast) was greater than 100 µM, the TGI (HT29 colon) was greater than 100 µM and the TGI (786-0 renal) was greater than 100 µM. For the same compound, the TGI (OVCAR-3 ovarian) was greater than 100 µM, the TGI (DU-145 prostate) was greater than 100 µM and the TGI (U251 CNS) was greater than 100 µM. The TGI (NCI-H23 lung) was greater than 100 µM, the TGI (SNB-75 CNS) was greater than 100 µM and the TGI (M14 melanoma) was greater than 100 µM. For the same compound, the TGI (CCRF-CEM leukemia) was greater than 100 µM, the TGI (SF-539 CNS) was 75.1 µM and the TGI (SNB-19 CNS) was greater than 100 µM. It also gave a TGI (MDA-MB-435) greater than 100 µM, a TGI (ACHN renal) greater than 100 µM and a TGI (RXF 393 renal) greater than 100 µM. The TGI (TK-10 renal) was greater than 100 µM, the TGI (SW-620 colon) was greater than 100 µM and the TGI (SK-MEL-28 melanoma) was greater than 100 µM. The TGI (SK-OV-3 ovarian) was greater than 100 µM, the TGI (MOLT-4 leukemia) was greater than 100 µM and the TGI (SF-268 CNS) was greater than 100 µM. The TGI (EKVX NSCLC) was greater than 100 µM, the TGI (A498 renal) was greater than 100 µM and the TGI (HCC-2998 colon) was greater than 100 µM. It also gave a TGI (HOP-62 NSCLC) greater than 100 µM, a TGI (HL-60(TB) leukemia) of 80.3 µM and a TGI (OVCAR-4 ovarian) greater than 100 µM. The TGI (KM12 colon) was greater than 100 µM, the TGI (SR leukemia) was greater than 100 µM and the TGI (OVCAR-8 ovarian) was greater than 100 µM. It also gave a TGI (SK-MEL-5 melanoma) greater than 100 µM, a TGI (K-562 leukemia) greater than 100 µM and a TGI (SN12C renal) greater than 100 µM. The TGI (NCI-H226 lung) was 96.1 µM, the TGI (MDA-MB-231 breast) was greater than 100 µM and the TGI (NCI-H522 lung) was greater than 100 µM. For the same compound, the TGI (LOX IMVI melanoma) was greater than 100 µM, the TGI (IGROV1 ovarian) was greater than 100 µM and the TGI (HOP-92 NSCLC) was greater than 100 µM. The TGI (UACC-62 melanoma) was greater than 100 µM and the TGI (A549 NSCLC) was greater than 100 µM.
